Columns and labels:
Assay type in all cases: in vivo
[1] = test system: directly sowed Oryza sativa; assay: Test Example 3: effect on crop by application to foliage (Wagner pot, water depth 0.1-0.5 cm); settings: Nineteenth Table; application to foliage; application herbicide amount 320 g/ha
Procedure, shortened: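 Wagner pot foliar test: sow, grow 14 d (25–30 °C), spray diluted emulsion at set g/ha, score after 3 wk; 0 ≤5%, 5 ≥90% herbicidal ratio.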

Abutilon theophrasti = assay: Test Example 4: herbicidal effect by application to foliage (diluvial soil, plastic box); settings: 320 g/ha; for M (Abutilon theophrasti) herbicidal effect grade: foliage application
Procedure, shortened: (§1)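 Emulsion-formulated compound, diluted to a predetermined g/ha dose, applied by small sprayer to leaves and stems of 14-day-old seedlings grown in sterilized diluvial soil. Effect rated on 0–5 herbicidal-ratio scale three weeks on.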

Alopecurus myosuroides = assay: as above; settings: 320 g/ha; for J (Alopecurus myosuroides) herbicidal effect grade: foliage application
Procedure, shortened: as §1

Amaranthus retroflexus = assay: as above; settings: 320 g/ha; for N (Amaranthus retroflexus) herbicidal effect grade: foliage application
Procedure, shortened: as §1

Apera spica-venti. = assay: as above; settings: 320 g/ha; for L (Apera spica-venti.) herbicidal effect grade: foliage application
Procedure, shortened: as §1

Avena fatua = assay: as above; settings: 320 g/ha; for I (Avena fatua) herbicidal effect grade: foliage application
Procedure, shortened: as §1

Chenopodium album = assay: as above; settings: 320 g/ha; for O (Chenopodium album) herbicidal effect grade: foliage application
Procedure, shortened: as §1

Digitaria ciliaris = assay: as above; settings: 320 g/ha; for F (Digitaria ciliaris) herbicidal effect grade: foliage application
Procedure, shortened: as §1

[2] = test system: Echinochloa crus-galli var. crus-galli; assay: as above; settings: 320 g/ha; for H (Echinochloa crus-galli var. crus-galli) herbicidal effect grade: foliage application
Procedure, shortened: as §1

Galium spurium = assay: as above; settings: 320 g/ha; for Q (Galium spurium) herbicidal effect grade: foliage application
Procedure, shortened: as §1

Lolium multiflorum Lam. = assay: as above; settings: 320 g/ha; for K (Lolium multiflorum Lam.) herbicidal effect grade: foliage application
Procedure, shortened: as §1

Setaria viridis = assay: as above; settings: 320 g/ha; for G (Setaria viridis) herbicidal effect grade: foliage application
Procedure, shortened: as §1

Stellaria media = assay: as above; settings: 320 g/ha; for P (Stellaria media) herbicidal effect grade: foliage application
Procedure, shortened: as §1

Veronica persica = assay: as above; settings: 320 g/ha; for R (Veronica persica) herbicidal effect grade: foliage application
Procedure, shortened: as §1

[3] = test system: Beta vulgaris ssp. vulgaris; assay: Test Example 4: effect on crop by application to foliage (diluvial soil, plastic box); settings: 320 g/ha; for f (Beta vulgaris ssp. vulgaris) effect on crop grade: foliage application
Procedure, shortened: as §1

Brassica campestris L. = assay: as above; settings: 320 g/ha; for g (Brassica campestris L.) effect on crop grade: foliage application
Procedure, shortened: as §1

Glycine max = assay: as above; settings: 320 g/ha; for c (Glycine max) effect on crop grade: foliage application
Procedure, shortened: as §1

Triticum aestivum = assay: as above; settings: 320 g/ha; for e (Triticum aestivum) effect on crop grade: foliage application
Procedure, shortened: as §1

Zea mays = assay: as above; settings: 320 g/ha; for b (Zea mays) effect on crop grade: foliage application
Procedure, shortened: as §1

[4] = test system: directly sowed Oryza sativa; assay: as above; settings: 320 g/ha; for d (directly sowed Oryza sativa) effect on crop grade: foliage application
Procedure, shortened: as §1

Compound	b (effect on crop grade) [1]	M (Abutilon theophrasti) herbicidal effect grade (Abutilon theophrasti)	J (Alopecurus myosuroides) herbicidal effect grade (Alopecurus myosuroides)	N (Amaranthus retroflexus) herbicidal effect grade (Amaranthus retroflexus)	L (Apera spica-venti.) herbicidal effect grade (Apera spica-venti.)	I (Avena fatua) herbicidal effect grade (Avena fatua)	O (Chenopodium album) herbicidal effect grade (Chenopodium album)	F (Digitaria ciliaris) herbicidal effect grade (Digitaria ciliaris)	H (Echinochloa crus-galli var. crus-galli) herbicidal effect grade [2]	Q (Galium spurium) herbicidal effect grade (Galium spurium)	K (Lolium multiflorum Lam.) herbicidal effect grade (Lolium multiflorum Lam.)	G (Setaria viridis) herbicidal effect grade (Setaria viridis)	P (Stellaria media) herbicidal effect grade (Stellaria media)	R (Veronica persica) herbicidal effect grade (Veronica persica)	f (Beta vulgaris ssp. vulgaris) effect on crop grade [3]	g (Brassica campestris L.) effect on crop grade (Brassica campestris L.)	c (Glycine max) effect on crop grade (Glycine max)	e (Triticum aestivum) effect on crop grade (Triticum aestivum)	b (Zea mays) effect on crop grade (Zea mays)	d (directly sowed Oryza sativa) effect on crop grade [4]	also measured
Cn1nnnc1NC(=O)c1ccc(C(F)(F)F)n2c(N3CCOCC3)nnc12 [2-075]	5 (Herbicidal ratio of 90% or more (almost completely withered))	–	–	–	–	–	–	–	–	–	–	–	–	–	–	–	–	–	–	–	herbicidal effect, M (Abutilon theophrasti) (Abutilon theophrasti; application to foliage): 5 (Herbicidal ratio of 90% or more (almost completely withered)); herbicidal effect, J (Alopecurus myosuroides) (Alopecurus myosuroides; application to foliage): 4 (Herbicidal ratio of 70% or more and less than 90%); herbicidal effect, N (Amaranthus retroflexus) (Amaranthus retroflexus; application to foliage): 5 (Herbicidal ratio of 90% or more (almost completely withered)); herbicidal effect, L (Apera spica-venti.) (Apera spica-venti.; application to foliage): 4 (Herbicidal ratio of 70% or more and less than 90%); herbicidal effect, I (Avena fatua) (Avena fatua; application to foliage): 5 (Herbicidal ratio of 90% or more (almost completely withered)); herbicidal effect, O (Chenopodium album) (Chenopodium album; application to foliage): 5 (Herbicidal ratio of 90% or more (almost completely withered)); herbicidal effect, F (Digitaria ciliaris) (Digitaria ciliaris; application to foliage): 5 (Herbicidal ratio of 90% or more (almost completely withered)); herbicidal effect, H (Echinochloa crus-galli var. crus-galli) ([2]; application to foliage): 5 (Herbicidal ratio of 90% or more (almost completely withered)); herbicidal effect, Q (Galium spurium) (Galium spurium; application to foliage): 4 (Herbicidal ratio of 70% or more and less than 90%); herbicidal effect, K (Lolium multiflorum Lam.) (Lolium multiflorum Lam.; application to foliage): 4 (Herbicidal ratio of 70% or more and less than 90%); herbicidal effect, G (Setaria viridis) (Setaria viridis; application to foliage): 5 (Herbicidal ratio of 90% or more (almost completely withered)); herbicidal effect, P (Stellaria media) (Stellaria media; application to foliage): 5 (Herbicidal ratio of 90% or more (almost completely withered)); herbicidal effect, R (Veronica persica) (Veronica persica; application to foliage): 5 (Herbicidal ratio of 90% or more (almost completely withered)); effect on crop, f (Beta vulgaris ssp. vulgaris) ([3]; application to foliage): 5 (Herbicidal ratio of 90% or more (almost completely withered)); effect on crop, g (Brassica campestris L.) (Brassica campestris L.; application to foliage): 5 (Herbicidal ratio of 90% or more (almost completely withered)); effect on crop, c (Glycine max) (Glycine max; application to foliage): 3 (Herbicidal ratio of 40% or more and less than 70%); effect on crop, e (Triticum aestivum) (Triticum aestivum; application to foliage): 4 (Herbicidal ratio of 70% or more and less than 90%); effect on crop, b (Zea mays) (Zea mays; application to foliage): 5 (Herbicidal ratio of 90% or more (almost completely withered)); effect on crop, d (directly sowed Oryza sativa) ([4]; application to foliage): 5 (Herbicidal ratio of 90% or more (almost completely withered))
CCS(=O)(=O)c1nnc2c(C(=O)Nc3nnnn3C)ccc(C(F)(F)F)n12 [2-038]	5 (Herbicidal ratio of 90% or more (almost completely withered))	5 (Herbicidal ratio of 90% or more (almost completely withered))	5 (Herbicidal ratio of 90% or more (almost completely withered))	5 (Herbicidal ratio of 90% or more (almost completely withered))	5 (Herbicidal ratio of 90% or more (almost completely withered))	5 (Herbicidal ratio of 90% or more (almost completely withered))	5 (Herbicidal ratio of 90% or more (almost completely withered))	5 (Herbicidal ratio of 90% or more (almost completely withered))	5 (Herbicidal ratio of 90% or more (almost completely withered))	5 (Herbicidal ratio of 90% or more (almost completely withered))	5 (Herbicidal ratio of 90% or more (almost completely withered))	5 (Herbicidal ratio of 90% or more (almost completely withered))	5 (Herbicidal ratio of 90% or more (almost completely withered))	5 (Herbicidal ratio of 90% or more (almost completely withered))	5 (Herbicidal ratio of 90% or more (almost completely withered))	5 (Herbicidal ratio of 90% or more (almost completely withered))	5 (Herbicidal ratio of 90% or more (almost completely withered))	5 (Herbicidal ratio of 90% or more (almost completely withered))	5 (Herbicidal ratio of 90% or more (almost completely withered))	5 (Herbicidal ratio of 90% or more (almost completely withered))	–
CCCS(=O)(=O)c1nnc2c(C(=O)Nc3nnnn3C)ccc(C(F)(F)F)n12 [2-070]	3 (Herbicidal ratio of 40% or more and less than 70%)	4 (Herbicidal ratio of 70% or more and less than 90%)	4 (Herbicidal ratio of 70% or more and less than 90%)	5 (Herbicidal ratio of 90% or more (almost completely withered))	4 (Herbicidal ratio of 70% or more and less than 90%)	5 (Herbicidal ratio of 90% or more (almost completely withered))	5 (Herbicidal ratio of 90% or more (almost completely withered))	5 (Herbicidal ratio of 90% or more (almost completely withered))	5 (Herbicidal ratio of 90% or more (almost completely withered))	4 (Herbicidal ratio of 70% or more and less than 90%)	4 (Herbicidal ratio of 70% or more and less than 90%)	5 (Herbicidal ratio of 90% or more (almost completely withered))	5 (Herbicidal ratio of 90% or more (almost completely withered))	5 (Herbicidal ratio of 90% or more (almost completely withered))	5 (Herbicidal ratio of 90% or more (almost completely withered))	5 (Herbicidal ratio of 90% or more (almost completely withered))	4 (Herbicidal ratio of 70% or more and less than 90%)	4 (Herbicidal ratio of 70% or more and less than 90%)	3 (Herbicidal ratio of 40% or more and less than 70%)	3 (Herbicidal ratio of 40% or more and less than 70%)	–
